Reference: the NIST ThermoML archive (doi:10.1016/j.fluid.2007.04.030)

Test: xn = mol fraction of the nth substance listed
Conditions: 101 kPa, Liquid

COc1cc2c(cc1O)CC1c3c(cc(O)c(OC)c3-2)CCN1C (centres undefined) [boldine] + CCCCO
mass density [kg/m3]
Conditions	x1 = 0.00228	x1 = 0.00461	x1 = 0.00696	x1 = 0.00936	x1 = 0.01178	x1 = 0.01427	x1 = 0.01678
283.15 K	820.49	823.85	827.2	830.57	833.94	837.36	840.79
288.15 K	816.73	820.08	823.43	826.79	830.16	833.57	837
293.15 K	812.93	816.28	819.62	822.98	826.35	829.75	833.18
298.15 K	809.11	812.45	815.8	819.15	822.52	825.92	829.34
303.15 K	805.26	808.6	811.94	815.29	818.66	822.06	825.48
308.15 K	801.39	804.72	808.06	811.4	814.77	818.16	821.58
313.15 K	797.47	800.81	804.14	807.48	810.84	814.23	817.64
318.15 K	793.52	796.85	800.17	803.52	806.87	810.25	813.67
323.15 K	789.52	792.84	796.17	799.51	802.86	806.23	809.66
328.15 K	785.47	788.79	792.11	795.45	798.79	802.17	805.59
333.15 K	781.35	784.67	787.99	791.32	794.67	798.05	801.46

CC(C)O [propan-2-ol] + COc1cc2c(cc1O)CC1c3c(cc(O)c(OC)c3-2)CCN1C
x2 = 0
Conditions	mass density [kg/m3]
283.15 K	793.31
288.15 K	789.22
293.15 K	785.08
298.15 K	780.87
303.15 K	776.6
308.15 K	772.25
313.15 K	767.81
318.15 K	763.28
323.15 K	758.64
328.15 K	753.88
333.15 K	749.01

CCCCCCCCO [octan-1-ol] + COc1cc2c(cc1O)CC1c3c(cc(O)c(OC)c3-2)CCN1C
x2 = 0
Conditions	mass density [kg/m3]
283.15 K	832.13
288.15 K	828.71
293.15 K	825.27
298.15 K	821.81
303.15 K	818.33
308.15 K	814.84
313.15 K	811.31
318.15 K	807.76
323.15 K	804.19
328.15 K	800.58
333.15 K	796.93

CCCO [propan-1-ol] + COc1cc2c(cc1O)CC1c3c(cc(O)c(OC)c3-2)CCN1C
x2 = 0
Conditions	mass density [kg/m3]
283.15 K	811.57
288.15 K	807.62
293.15 K	803.63
298.15 K	799.62
303.15 K	795.58
308.15 K	791.49
313.15 K	787.37
318.15 K	783.22
323.15 K	779.01
328.15 K	774.73
333.15 K	770.39

CCCCO [butan-1-ol] + COc1cc2c(cc1O)CC1c3c(cc(O)c(OC)c3-2)CCN1C
x2 = 0
Conditions	mass density [kg/m3]
283.15 K	817.15
288.15 K	813.38
293.15 K	809.59
298.15 K	805.77
303.15 K	801.92
308.15 K	798.05
313.15 K	794.14
318.15 K	790.19
323.15 K	786.19
328.15 K	782.14
333.15 K	778.03

CCCCCCO [hexan-1-ol] + COc1cc2c(cc1O)CC1c3c(cc(O)c(OC)c3-2)CCN1C
x2 = 0
Conditions	mass density [kg/m3]
283.15 K	827.82
288.15 K	824.25
293.15 K	820.65
298.15 K	817.03
303.15 K	813.39
308.15 K	809.71
313.15 K	806
318.15 K	802.27
323.15 K	798.49
328.15 K	794.67
333.15 K	790.8

COc1cc2c(cc1O)CC1c3c(cc(O)c(OC)c3-2)CCN1C (centres undefined) [boldine] + CCCCCCCCO
mass density [kg/m3]
Conditions	x1 = 0.00398	x1 = 0.00806	x1 = 0.01216
283.15 K	835.34	838.57	842.06
288.15 K	831.91	835.14	838.62
293.15 K	828.46	831.68	835.16
298.15 K	825	828.21	831.68
303.15 K	821.52	824.72	828.18
308.15 K	818.01	821.21	824.66
313.15 K	814.49	817.68	821.12
318.15 K	810.93	814.12	817.55
323.15 K	807.34	810.52	813.96
328.15 K	803.73	806.9	810.33
333.15 K	800.08	803.24	806.66

COc1cc2c(cc1O)CC1c3c(cc(O)c(OC)c3-2)CCN1C (centres undefined) [boldine] + CCCO
mass density [kg/m3]
Conditions	x1 = 0.00185	x1 = 0.00374	x1 = 0.00565	x1 = 0.0076	x1 = 0.00957	x1 = 0.01158	x1 = 0.01361
283.15 K	814.99	818.36	821.77	825.23	828.61	832.08	835.59
288.15 K	811.04	814.41	817.81	821.26	824.65	828.12	831.61
293.15 K	807.05	810.42	813.82	817.26	820.65	824.12	827.61
298.15 K	803.04	806.4	809.8	813.24	816.64	820.1	823.59
303.15 K	799	802.35	805.75	809.2	812.59	816.05	819.54
308.15 K	794.92	798.27	801.67	805.12	808.5	811.96	815.45
313.15 K	790.81	794.14	797.55	800.98	804.37	807.83	811.31
318.15 K	786.65	789.98	793.39	796.82	800.21	803.65	807.13
323.15 K	782.43	785.77	789.17	792.6	795.99	799.42	802.91
328.15 K	778.16	781.5	784.89	788.33	791.71	795.16	798.63
333.15 K	773.81	777.16	780.54	783.99	787.37	790.82	794.3

CCO [ethanol] + COc1cc2c(cc1O)CC1c3c(cc(O)c(OC)c3-2)CCN1C
x2 = 0
Conditions	mass density [kg/m3]
283.15 K	797.96
288.15 K	793.71
293.15 K	789.44
298.15 K	785.15
303.15 K	780.83
308.15 K	776.48
313.15 K	772.09
318.15 K	767.65
323.15 K	763.17
328.15 K	758.63
333.15 K	754.01

CO [methanol] + COc1cc2c(cc1O)CC1c3c(cc(O)c(OC)c3-2)CCN1C
x2 = 0
Conditions	mass density [kg/m3]
283.15 K	801.08
288.15 K	796.41
293.15 K	791.71
298.15 K	787.01
303.15 K	782.29
308.15 K	777.55
313.15 K	772.78
318.15 K	767.97
323.15 K	763.12
328.15 K	758.23
333.15 K	753.29
